Experimental data: patent US8952024B2, “Herbicidal pyrimidone derivatives” (E I du Pont de Nemours and Company, priority 2009, dated 2015)

Legend:
Format in all cases: in vivo
[1] = system: Italian ryegrass (Lolium multiflorum); assay: Test B pre-/postemergence plant response
Procedure, shortened: (§1)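 Compound in solvent + surfactant applied pre-em (loam/sand) or post-em (plants 2–18 cm, peat medium); greenhouse hold 13–15 days; visual 0–100 control score.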

[2] = system: Surinam grass (Brachiaria decumbens); assay: Test B pre-/postemergence plant response
Procedure, shortened: as §1

[3] = system: blackgrass (Alopecurus myosuroides); assay: Test B pre-/postemergence plant response
Procedure, shortened: as §1

[4] = system: cocklebur (Xanthium strumarium); assay: Test B pre-/postemergence plant response
Procedure, shortened: as §1

corn (Zea mays) = assay: Test B pre-/postemergence plant response
Procedure, shortened: as §1

[5] = system: downy bromegrass (Bromus tectorum); assay: Test B pre-/postemergence plant response
Procedure, shortened: as §1

[6] = system: giant foxtail (Setaria faberii); assay: Test B pre-/postemergence plant response
Procedure, shortened: as §1

[7] = system: morningglory (Ipomoea coccinea); assay: Test B pre-/postemergence plant response
Procedure, shortened: as §1

[8] = system: pigweed (Amaranthus retroflexus); assay: Test B pre-/postemergence plant response
Procedure, shortened: as §1

wild oat (Avena fatua) = assay: Test B pre-/postemergence plant response
Procedure, shortened: as §1

[9] = system: canarygrass (Phalaris minor); assay: Test B postemergence plant response
Procedure, shortened: (§2)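 Visual ratings from 0 (no effect) to 100 (complete control), made against controls 13–15 days after treatment, kept in a greenhouse. Compounds were applied postemergence to potted plants at the 1- to 4-leaf stage (2–18 cm).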

[10] = system: chickweed (Stellaria media); assay: Test B postemergence plant response
Procedure, shortened: as §2

[11] = system: windgrass (Apera spica-venti); assay: Test B postemergence plant response
Procedure, shortened: as §2

[12] = 31 g ai/ha, postemergence, scale 0 to 100, 0 is no effect, 100 is complete control
[13] = Postemergence, 62 g ai/ha, scale 0 (no effect) to 100 (complete control), 13 to 15 days
[14] = Postemergence, 125 g ai/ha, visual rating after 13 to 15 days, scale 0 (no effect) to 100 (complete control)
[15] = Postemergence, 250 g ai/ha, scale 0 to 100 (0 no effect, 100 complete control)
[16] = Preemergence, 31 g ai/ha, scale 0 to 100 (0 no effect, 100 complete control)
[17] = Preemergence, 62 g ai/ha, scale 0 to 100 (0 no effect, 100 complete control)
[18] = Preemergence, 125 g ai/ha, scale 0 to 100, 0 no effect, 100 complete control
[19] = 250 g ai/ha, Preemergence, 0 to 100 scale

O=C1CCCC(O)=C1C(=O)c1cnc(-c2ccccc2)n(CC2CCCO2)c1=O (centres unmarked) [Compound 59]
Plant response rating, Ryegrass, Italian [1, 12]: 5 | Plant response rating, Ryegrass, Italian [1, 13]: 50 | Plant response rating, Ryegrass, Italian [1, 14]: 70 | Plant response rating, Ryegrass, Italian [1, 15]: 80 | Plant response rating, Ryegrass, Italian [1, 16]: 0 | Plant response rating, Ryegrass, Italian [1, 17]: 0 | Plant response rating, Ryegrass, Italian [1, 18]: 20 | Plant response rating, Surinam Grass [2, 12]: 75 | Plant response rating, Surinam Grass [2, 13]: 80 | Plant response rating, Surinam Grass [2, 14]: 90 | Plant response rating, Surinam Grass [2, 15]: 90 | Plant response rating, Surinam Grass [2, 16]: 5 | Plant response rating, Surinam Grass [2, 17]: 75 | Plant response rating, Surinam Grass [2, 18]: 85 | Plant response rating, Blackgrass [3, 12]: 10 | Plant response rating, Blackgrass [3, 19]: 40 | Plant response rating, Blackgrass [3, 13]: 35 | Plant response rating, Blackgrass [3, 14]: 40 | Plant response rating, Blackgrass [3, 15]: 60 | Plant response rating, Blackgrass [3, 16]: 0 | Plant response rating, Blackgrass [3, 17]: 0 | Plant response rating, Blackgrass [3, 18]: 30 | Plant response rating, Cocklebur [4, 12]: 85 | Plant response rating, Cocklebur [4, 19]: 75 | Plant response rating, Cocklebur [4, 13]: 85 | Plant response rating, Cocklebur [4, 14]: 90 | Plant response rating, Cocklebur [4, 15]: 100 | Plant response rating, Cocklebur [4, 16]: 0 | Plant response rating, Cocklebur [4, 17]: 0 | Plant response rating, Cocklebur [4, 18]: 10 | Plant response rating, Corn (corn (Zea mays); [19]): 0 | Plant response rating, Corn (corn (Zea mays); [13]): 0 | Plant response rating, Corn (corn (Zea mays); [14]): 75 | Plant response rating, Corn (corn (Zea mays); [15]): 75 | Plant response rating, Corn (corn (Zea mays); [16]): 0 | Plant response rating, Corn (corn (Zea mays); [17]): 0 | Plant response rating, Corn (corn (Zea mays); [18]): 0 | Plant response rating, Bromegrass, Downy [5, 12]: 5 | Plant response rating, Bromegrass, Downy [5, 19]: 0 | Plant response rating, Bromegrass, Downy [5, 13]: 30 | Plant response rating, Bromegrass, Downy [5, 14]: 35 | Plant response rating, Bromegrass, Downy [5, 15]: 45 | Plant response rating, Bromegrass, Downy [5, 16]: 0 | Plant response rating, Bromegrass, Downy [5, 17]: 0 | Plant response rating, Bromegrass, Downy [5, 18]: 0 | Plant response rating, Foxtail, Giant [6, 12]: 75 | Plant response rating, Foxtail, Giant [6, 19]: 75 | Plant response rating, Foxtail, Giant [6, 13]: 90 | Plant response rating, Foxtail, Giant [6, 14]: 95 | Plant response rating, Foxtail, Giant [6, 15]: 95 | Plant response rating, Foxtail, Giant [6, 16]: 0 | Plant response rating, Foxtail, Giant [6, 17]: 0 | Plant response rating, Foxtail, Giant [6, 18]: 60 | Plant response rating, Morningglory [7, 13]: 50 | Plant response rating, Morningglory [7, 14]: 80 | Plant response rating, Morningglory [7, 15]: 80 | Plant response rating, Morningglory [7, 17]: 0 | Plant response rating, Morningglory [7, 18]: 55 | Plant response rating, Pigweed [8, 13]: 100 | Plant response rating, Pigweed [8, 14]: 100 | Plant response rating, Pigweed [8, 15]: 100 | Plant response rating, Pigweed [8, 16]: 90 | Plant response rating, Pigweed [8, 17]: 100 | Plant response rating, Pigweed [8, 18]: 100 | Plant response rating, Oat, Wild (wild oat (Avena fatua); [12]): 30 | Plant response rating, Oat, Wild (wild oat (Avena fatua); [13]): 40 | Plant response rating, Oat, Wild (wild oat (Avena fatua); [14]): 55 | Plant response rating, Oat, Wild (wild oat (Avena fatua); [15]): 80 | Plant response rating, Oat, Wild (wild oat (Avena fatua); [16]): 0 | Plant response rating, Oat, Wild (wild oat (Avena fatua); [17]): 0 | Plant response rating, Oat, Wild (wild oat (Avena fatua); [18]): 0 | Plant response rating, Canarygrass [9, 12]: 5 | Plant response rating, Canarygrass [9, 13]: 5 | Plant response rating, Canarygrass [9, 14]: 50 | Plant response rating, Canarygrass [9, 15]: 70 | Plant response rating, Chickweed [10, 12]: 85 | Plant response rating, Chickweed [10, 13]: 98 | Plant response rating, Chickweed [10, 14]: 98 | Plant response rating, Chickweed [10, 15]: 100 | Plant response rating, Windgrass [11, 12]: 20 | Plant response rating, Windgrass [11, 13]: 60 | Plant response rating, Windgrass [11, 14]: 60 | Plant response rating, Windgrass [11, 15]: 70
